# Structures can show the parent of a compound that is named as a salt.
# Target: T1, activated ROCK II (Rattus norvegicus, UniProt Q62868)
# T1 construct: purchased Upstate Biotechnology 14-338
# Assay: Test for Evaluation of Inhibiting Activity to Rho Kinase
# Format: biochemical
# Details: S6 Kinase Substrate Peptide, [γ-32P]ATP, 30° C. for 15 minutes, Ki=IC50/(1+S/Km)
# Procedure: In order to find the utility of the present invention compound, a Rho kinase inhibiting activity of the present invention compound was evaluated. The details thereof will be illustrated under the item of “Pharmacological Test (Test for Evaluation of Rho Kinase Inhibiting Activity)” in the Examples which will be mentioned later. The evaluation of the Rho kinase inhibiting activity of the present invention compound was carried out in accordance with the methods mentioned in J. Biol. Chem., 274, 32418 (1999) by Kaibuchi, et al. and mentioned in the instruction manual for use attached to the commercially available activated ROCK II [Upstate Biotechnology, Catalog No. 14-338 (5 units/50 μl)].
# A. Test for Evaluation of Inhibiting Activity to Rho Kinase
# In order to test the usefulness of the compounds of the present invention as a Rho kinase inhibitor, inhibiting activities of the compounds of the present invention to Rho kinase were evaluated and investigated in accordance with the methods of Kaibuchi, et al. mentioned in J. Biol. Chem., 274, 32418, 1999 and also with the methods mentioned in the instruction manual for use attached to commercially available activated ROCK II [Upstate Biotechnology, Catalog No. 14-338, (5 unite/50 μl)]. With regard to the test compounds, the compounds 5-1 to 5-73 (except the compounds 5-2, 5-9, 5-18, 5-37 and 5-38) were used.
# A buffer was prepared so as to make tris(hydroxymethyl)aminomethane (Tris) (pH 7.5), 50 mM, ethyleneglycol bis(β-aminoethyl ether)-N,N,N′,N′-tetraacetic acid (EGTA), 2 mM, ethylenediaminetetraacetic acid (EDTA), 1 mM, magnesium chloride (MgCl2) 5 mM, β-glycerol phosphate, 5 mM, and dithiothreitol (DTT), 2 mM, by mixing them.
# A mixed liquid of a 10 mM ATP solution with a commercially available [γ-^32P]ATP solution [NEN, Code No. NEG-002A] was diluted with the buffer to prepare a 300 μM ATP [γ-^32P]ATP solution.
# A Commercially Available Activated ROCK II [Upstate Biotechnology, Catalog No. 14-338, (5 Units/50 μl)] was diluted to a concentration of 1/100 with the buffer to prepare an activated ROCK II solution.
# A S6 Kinase Substrate Peptide [Upstate Biotechnology, Catalog No. 12-124,] (2 mg) was dissolved in distilled water to prepare a 1 mM substrate solution.
# A test compound was dissolved in 10% aqueous dimethyl sulfoxide solution.
# 1) The test compound solution is placed in a microtube.
# 2) The 300 μM ATP [γ-^32P]ATP solution is added to the microtube followed by cooling to 4° C.
# 3) After that, a permanently activated ROCK II solution, 1 mM substrate solution and buffer are added to each microtube in that order, and the whole is mixed and cooled again at 4° C.
# 4) The microtube is placed in an incubator (30° C.) and the mixture is subjected to reaction for 15 minutes.
# 5) After cooling to 4° C., a 250 mM phosphoric acid solution (5 μl) is added to each microtube to stop the reaction.
# 6) The reaction solution (30 μl) is taken out from each microtube and spotted on a filter paper (Whatman P81) so that the reaction product (phosphorylated substrate) is adsorbed to the filter paper.
# 7) The filter paper is transferred to a beaker in which a 75 mM phosphoric acid solution is placed and shaken for 5 minutes so that unreacted [γ-^32P]AfP is washed out. The washing operation as such is carried out four times.
# 8) After that, the filter paper is dipped in ethanol to dehydrate and energy amount (radioactivity) of the reaction product adsorbed to the filter paper is measured with a liquid scintillation counter.
# The IC50 value was calculated by an XL-fit (IDBS).
# The Ki value is calculated by the following formula. S is an ATP concentration contained in the reaction solution while Km is a Michaelis-Menten constant. Ki=IC50/(1+S/Km)
# T1 sequence (Q62868 11-550 limits assumed): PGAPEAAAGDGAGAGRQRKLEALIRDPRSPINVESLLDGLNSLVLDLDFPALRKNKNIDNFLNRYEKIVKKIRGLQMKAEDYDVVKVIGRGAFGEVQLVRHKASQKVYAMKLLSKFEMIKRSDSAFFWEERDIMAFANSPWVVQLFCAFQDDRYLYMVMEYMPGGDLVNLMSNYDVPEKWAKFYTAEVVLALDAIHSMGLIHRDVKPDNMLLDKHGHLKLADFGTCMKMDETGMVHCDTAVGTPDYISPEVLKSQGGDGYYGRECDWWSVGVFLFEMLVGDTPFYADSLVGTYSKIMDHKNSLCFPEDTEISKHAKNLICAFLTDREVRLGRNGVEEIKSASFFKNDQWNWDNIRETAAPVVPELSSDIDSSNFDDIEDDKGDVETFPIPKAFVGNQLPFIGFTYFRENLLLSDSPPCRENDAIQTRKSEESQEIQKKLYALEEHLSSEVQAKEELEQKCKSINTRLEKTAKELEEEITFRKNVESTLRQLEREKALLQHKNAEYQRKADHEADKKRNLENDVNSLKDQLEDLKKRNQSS
row,SMILES,Ki
1,"CC(C)(N)c1ccc(-c2ccc3[nH]ncc3c2)cc1 [Compound 5-1, 5-[4-(1-amino-1-methylethyl)phenyl]-1H-indazole dihydrochloride]",0.019 µM
2,"CC(C)(N)c1ccc(-c2ccc3[nH]ncc3c2)nc1 [Compound 5-3, 5-[5-(1-Amino-1-methylethyl)pyridin-2-yl]-1H-indazole trihydrochloride]",0.02 µM
3,"CC(C)(N)c1ccc(-c2ccc3[nH]ncc3c2N)cc1 [Compound 5-5, 4-Amino-5-[4-(1-amino-1-methylethyl)phenyl]-1H-indazole trihydrochloride]",0.044 µM
4,"CNc1c(-c2ccc(C(C)(C)N)cc2)ccc2[nH]ncc12 [Compound 5-7, 5-[4-(1-Amino-1-methylethyl)phenyl]-4-methylamino-1H-indazole trihydrochloride]",0.015 µM
5,"COC(=O)c1n[nH]c2ccc(-c3ccc(C(C)(C)N)cc3)cc12 [Compound 5-8, 5-[4-(1-Amino-1-methylethyl)phenyl]-3-methoxy-carbonyl-1H-indazole dihydrochloride]",0.097 µM
6,"CC(C)(N)c1ccc(-c2ccc3[nH]nc(N)c3c2)cc1 [Compound 5-11, 3-Amino-5-[4-(1-amino-1-methylethyl)phenyl]-1H-indazole trihydrochloride]",0.144 µM
7,"CC(C)(N)c1ccc(-c2ccc3[nH]nc(C=NO)c3c2)cc1 [Compound 5-12, 5-[4-(1-Amino-1-methylethyl)phenyl]-3-hydroxyimino-methyl-1H-indazole monohydrochloride]",0.0075 µM
8,"C=C(C)c1n[nH]c2ccc(-c3ccc(C(C)(C)N)cc3)cc12 [Compound 5-15, 5-[4-(1-Amino-1-methylethyl)phenyl]-3-(1-methyl-vinyl)-1H-indazole monotrifluoroacetate]",0.056 µM
9,"CN(C)c1c(-c2ccc(CN)cc2)ccc2[nH]ncc12 [Compound 5-23, 5-[4-(Aminomethyl)phenyl]-4-dimethylamino-1H-indazole trihydrochloride]",0.029 µM
10,"CN(C)c1c(-c2ccc(C3(N)CCCC3)cc2)ccc2[nH]ncc12 [Compound 5-24, 5-[4-(1-Aminocyclopentyl)phenyl]-4-dimethylamino-1H-indazole trihydrochloride]",0.014 µM
11,"CC(N)c1ccc(-c2ccc3[nH]ncc3c2N(C)C)cc1 (stereo not drawn) [Compound 5-26, 5-[4-(1-Aminoethyl)phenyl]-4-dimethylamino-1H-indazole trihydrochloride]",0.027 µM
12,"CC(C)(N)c1ccc(-c2ccc3[nH]ncc3c2CCO)cc1 [Compound 5-32, 5-[4-(1-Amino-1-methylethyl)phenyl]-4-(2-hydroxy-ethyl)-1H-indazole dihydrochloride]",0.047 µM
13,"CC(C)(N)c1ccc(-c2ccc3[nH]ncc3c2CCO)nc1 [Compound 5-33, 5-[5-(1-Amino-1-methylethyl)pyridin-2-yl]-4-(2-hydroxyethyl)-1H-indazole trihydrochloride]",0.234 µM
14,"CC(C)(N)c1ccc(-c2ccc3[nH]ncc3c2CO)cc1 [Compound 5-35, 5-[4-(1-Amino-1-methylethyl)phenyl]-4-hydroxymethyl-1H-indazole dihydrochloride]",0.139 µM
15,"CC(C)(N)c1ccc(-c2ccc3[nH]ncc3c2C#N)cc1 [Compound 5-36, 5-[4-(1-Amino-1-methylethyl)phenyl]-4-cyano-1H-indazole monohydrochloride]",0.035 µM

# The next lines start with the values.
row,Ki,SMILES
1,0.028 µM,"CC(C)(N)c1ccc(-c2ccc3[nH]ncc3c2[N+](=O)[O-])cc1 [Compound 5-4, 5-[4-(1-Amino-1-methylethyl)phenyl]-4-nitro-1H-indazole monohydrochloride]"
2,0.26 µM,"CC(C)(N)c1ccc(-c2ccc3[nH]ncc3c2NCc2ccccc2)cc1 [Compound 5-6, 5-[4-(1-Amino-1-methylethyl)phenyl]-4-benzylamino-1H-indazole dihydrochloride]"
3,0.134 µM,"CC(C)(N)c1ccc(-c2ccc3[nH]nc(C(N)=O)c3c2)cc1 [Compound 5-10, 3-Aminocarbonyl-5-[4-(1-amino-1-methylethyl)phenyl]-1H-indazole monohydrochloride]"
4,0.103 µM,"CC(C)(N)c1ccc(-c2ccc3[nH]nc(C#N)c3c2)cc1 [Compound 5-13, 5-[4-(1-Amino-1-methylethyl)phenyl]-3-cyano-1H-indazole dihydrochloride]"
5,0.142 µM,"CC(C)(N)c1ccc(-c2ccc3[nH]nc(CO)c3c2)cc1 [Compound 5-14, 5-[4-(1-Amino-1-methylethyl)phenyl]-3-hydroxymethyl-1H-indazole dihydrochloride]"
6,0.016 µM,"CN(C)c1c(-c2ccc(C(C)(C)N)cc2)ccc2[nH]ncc12 [Compound 5-16, 5-[4-(1-Amino-1-methylethyl)phenyl]-4-dimethylamino-1H-indazole trihydrochloride]"
7,0.199 µM,"CC(C)(N)c1ccc(-c2ccc3[nH]ncc3c2[N+](=O)[O-])nc1 [Compound 5-17, 5-[5-(1-Amino-1-methylethyl)pyridin-2-yl]-4-nitro-1H-indazole dihydrochloride]"
8,0.055 µM,"NCc1ccc(-c2ccc3[nH]ncc3c2[N+](=O)[O-])cc1 [Compound 5-19, 5-[4-(Aminomethyl)phenyl]-4-nitro-1H-indazole dihydrochloride]"
9,0.061 µM,"NCc1ccc(-c2ccc3[nH]ncc3c2N)cc1 [Compound 5-20, 4-Amino-5-[4-(aminomethyl)phenyl]-1H-indazole trihydrochloride]"
10,0.026 µM,"Nc1c(-c2ccc(C3(N)CCCC3)cc2)ccc2[nH]ncc12 [Compound 5-21, 4-Amino-5-[4-(1-aminocyclopentyl)phenyl]-1H-indazole dihydrochloride]"
11,0.038 µM,"CCC(N)(CC)c1ccc(-c2ccc3[nH]ncc3c2N)cc1 [Compound 5-22, 4-Araino-5-[4-(1-amino-1-ethylpropyl)phenyl]-1H-indazole trihydrochloride]"
12,0.023 µM,"CCC(N)(CC)c1ccc(-c2ccc3[nH]ncc3c2N(C)C)cc1 [Compound 5-25, 5-[4-(1-Amino-1-ethylpropyl)phenyl]-4-dimethylamino-1H-indazole trihydrochloride]"
13,0.086 µM,"CC(C)(N)c1cnc(-c2ccc3[nH]ncc3c2)c(Cl)c1 [Compound 5-27, 5-[5-(1-Amino-1-methylethyl)-3-chloropyridin-2-yl]-1H-indazole trihydrochloride]"
14,0.015 µM,"CCc1c(-c2ccc(C(C)(C)N)cn2)ccc2[nH]ncc12 [Compound 5-28, 5-[5-(1-Amino-1-methylethyl)pyridin-2-yl]-4-ethyl-1H-indazole trihydrochloride]"
15,0.0027 µM,"CC(C)(N)c1ccc(-c2ccc3[nH]ncc3c2C2CC2)nc1 [Compound 5-29, 5-[5-(1-Amino-1-methylethyl)pyridin-2-yl]-4-cyclo-propyl-1H-indazole trihydrochloride]"
16,0.017 µM,"C=Cc1c(-c2ccc(C(C)(C)N)cn2)ccc2[nH]ncc12 [Compound 5-30, 5-[5-(1-Amino-1-methylethyl)pyridin-2-yl]-4-vinyl-1H-indazole trihydrochloride]"
17,0.614 µM,"CCN(CC)c1c(-c2ccc(C(C)(C)N)cc2)ccc2[nH]ncc12 [Compound 5-31, 5-[4-(1-Amino-1-methylethyl)phenyl]-4-diethylamino-1H-indazole trihydrochloride]"
18,0.294 µM,"CC(O)c1c(-c2ccc(C(C)(C)N)cc2)ccc2[nH]ncc12 (stereo not drawn) [Compound 5-34, 5-[4-(1-Amino-1-methylethyl)phenyl]-4-(1-hydroxy-ethyl)-1H-indazole dihydrochloride]"

# Source: patent US8232308B2, “Methods for treating a disease in which Rho kinase is involved” (UBE Industries, Ltd., priority 2003, dated 2012)
